Measurements: the supplement of paper PMC10307832

What was measured:
Experiment in all cases: relative viability (nuclei count vs DMSO), 5 days (fraction); higher = more cells survive
NCI-H2347 = test system: NCI-H2347
How it was run: (§1)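 Lung cancer cell lines in 1536-well plates were dosed by pin tool the day after seeding, either with one drug alone or with a fixed anchor-drug dose plus five library-drug doses (not always all listed) in √10 steps. After 5 days, cells were fixed and their nuclei stained in one step (final 0.05% Triton X-100, 1% formaldehyde, 1 ug/ml Hoechst), then counted on 4× images. Relative viability is the nuclei count in treated wells divided by that in vehicle wells. Values are medians of duplicate plates.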

SK-MES-1 = test system: SK-MES-1
How it was run: as §1

NCI-H1563 = test system: NCI-H1563
How it was run: as §1

NCI-H661 = test system: NCI-H661
How it was run: as §1

NCI-H322M = test system: NCI-H322M
How it was run: as §1

NCI-H3122 = test system: NCI-H3122
How it was run: as §1

NCI-H1651 = test system: NCI-H1651
How it was run: as §1

PC-14 = test system: PC-14
How it was run: as §1

NCI-H727 = test system: NCI-H727
How it was run: as §1

NCI-H596 = test system: NCI-H596
How it was run: as §1

RERF-LC-KJ = test system: RERF-LC-KJ
How it was run: as §1

NCI-H1755 = test system: NCI-H1755
How it was run: as §1

NCI-H1355 = test system: NCI-H1355
How it was run: as §1

NCI-H1915 = test system: NCI-H1915
How it was run: as §1

NCI-H1792 = test system: NCI-H1792
How it was run: as §1

NCI-H520 = test system: NCI-H520
How it was run: as §1

LXF-289 = test system: LXF-289
How it was run: as §1

NCI-H460 = test system: NCI-H460
How it was run: as §1

SMILES: COc1nc(C)cnc1NS(=O)(=O)c1cccnc1-c1ccc(-c2nnco2)cc1 [Zibotentan] + CS(=O)(=O)CCNCc1ccc(-c2ccc3ncnc(Nc4ccc(OCc5cccc(F)c5)c(Cl)c4)c3c2)o1 [Lapatinib] (partner 2 µM)
- relative viability (NCI-H2347; first compound 0.08 µM): 1.05
- relative viability (NCI-H2347; first compound 0.253 µM): 0.941
- relative viability (NCI-H2347; first compound 0.8 µM): 1.19
- relative viability (NCI-H2347; first compound 2.53 µM): 0.943
- relative viability (SK-MES-1; first compound 0.08 µM): 0.505
- relative viability (SK-MES-1; first compound 0.253 µM): 0.453
- relative viability (SK-MES-1; first compound 0.8 µM): 0.498
- relative viability (SK-MES-1; first compound 2.53 µM): 0.509
- relative viability (NCI-H1563; first compound 0.08 µM): 0.993
- relative viability (NCI-H1563; first compound 0.253 µM): 0.535
- relative viability (NCI-H1563; first compound 0.8 µM): 0.905
- relative viability (NCI-H1563; first compound 2.53 µM): 0.958
- relative viability (NCI-H661; first compound 0.08 µM): 0.453
- relative viability (NCI-H661; first compound 0.253 µM): 0.445
- relative viability (NCI-H661; first compound 0.8 µM): 0.445
- relative viability (NCI-H661; first compound 2.53 µM): 0.46
- relative viability (NCI-H322M; first compound 0.08 µM): 0.553
- relative viability (NCI-H322M; first compound 0.253 µM): 0.621
- relative viability (NCI-H322M; first compound 0.8 µM): 0.582
- relative viability (NCI-H322M; first compound 2.53 µM): 0.624
- relative viability (NCI-H3122; first compound 0.08 µM): 0.99
- relative viability (NCI-H3122; first compound 0.253 µM): 1.03
- relative viability (NCI-H3122; first compound 0.8 µM): 1.03
- relative viability (NCI-H3122; first compound 2.53 µM): 1.01
- relative viability (NCI-H1651; first compound 0.08 µM): 0.935
- relative viability (NCI-H1651; first compound 0.253 µM): 0.366
- relative viability (NCI-H1651; first compound 0.8 µM): 0.747
- relative viability (NCI-H1651; first compound 2.53 µM): 0.854
- relative viability (PC-14; first compound 0.08 µM): 0.322
- relative viability (PC-14; first compound 0.253 µM): 0.314
- relative viability (PC-14; first compound 0.8 µM): 0.344
- relative viability (PC-14; first compound 2.53 µM): 0.348
- relative viability (NCI-H727; first compound 0.08 µM): 0.879
- relative viability (NCI-H727; first compound 0.253 µM): 0.739
- relative viability (NCI-H727; first compound 0.8 µM): 0.781
- relative viability (NCI-H727; first compound 2.53 µM): 1.16
- relative viability (NCI-H596; first compound 0.08 µM): 1.03
- relative viability (NCI-H596; first compound 0.253 µM): 1.12
- relative viability (NCI-H596; first compound 0.8 µM): 1.08
- relative viability (NCI-H596; first compound 2.53 µM): 1.08
- relative viability (RERF-LC-KJ; first compound 0.08 µM): 0.89
- relative viability (RERF-LC-KJ; first compound 0.253 µM): 0.807
- relative viability (RERF-LC-KJ; first compound 0.8 µM): 0.878
- relative viability (RERF-LC-KJ; first compound 2.53 µM): 0.845
- relative viability (NCI-H1755; first compound 0.08 µM): 1.06
- relative viability (NCI-H1755; first compound 0.253 µM): 0.988
- relative viability (NCI-H1755; first compound 0.8 µM): 1.08
- relative viability (NCI-H1755; first compound 2.53 µM): 1.05
- relative viability (NCI-H1355; first compound 0.08 µM): 1.01
- relative viability (NCI-H1355; first compound 0.253 µM): 1.03
- relative viability (NCI-H1355; first compound 0.8 µM): 0.946
- relative viability (NCI-H1355; first compound 2.53 µM): 0.977
- relative viability (NCI-H1915; first compound 0.08 µM): 1.03
- relative viability (NCI-H1915; first compound 0.253 µM): 0.934
- relative viability (NCI-H1915; first compound 0.8 µM): 0.963
- relative viability (NCI-H1915; first compound 2.53 µM): 1.03
- relative viability (NCI-H1792; first compound 0.08 µM): 1.01
- relative viability (NCI-H1792; first compound 0.253 µM): 0.896
- relative viability (NCI-H1792; first compound 0.8 µM): 0.816
- relative viability (NCI-H1792; first compound 2.53 µM): 0.848
- relative viability (NCI-H520; first compound 0.08 µM): 0.885
- relative viability (NCI-H520; first compound 0.253 µM): 0.809
- relative viability (NCI-H520; first compound 0.8 µM): 0.853
- relative viability (NCI-H520; first compound 2.53 µM): 0.927
- relative viability (LXF-289; first compound 0.08 µM): 0.873
- relative viability (LXF-289; first compound 0.253 µM): 0.886
- relative viability (LXF-289; first compound 0.8 µM): 0.93
- relative viability (LXF-289; first compound 2.53 µM): 0.878
- relative viability (NCI-H460; first compound 0.08 µM): 1.04
- relative viability (NCI-H460; first compound 0.8 µM): 1.03
- relative viability (NCI-H460; first compound 2.53 µM): 1.12

SMILES: O=c1cc(-c2cccc3c2Sc2ccccc2S3)oc(N2CCOCC2)c1 + CS(=O)(=O)CCNCc1ccc(-c2ccc3ncnc(Nc4ccc(OCc5cccc(F)c5)c(Cl)c4)c3c2)o1 [Lapatinib] (partner 2 µM)
- relative viability (NCI-H2347; first compound 0.08 µM): 0.978
- relative viability (NCI-H2347; first compound 0.253 µM): 1.09
- relative viability (NCI-H2347; first compound 0.8 µM): 1.02
- relative viability (NCI-H2347; first compound 2.53 µM): 1.04
- relative viability (NCI-H2347; first compound 8 µM): 1.19
- relative viability (SK-MES-1; first compound 0.08 µM): 0.487
- relative viability (SK-MES-1; first compound 0.253 µM): 0.562
- relative viability (SK-MES-1; first compound 0.8 µM): 0.445
- relative viability (SK-MES-1; first compound 2.53 µM): 0.483
- relative viability (SK-MES-1; first compound 8 µM): 0.439
- relative viability (NCI-H1563; first compound 0.08 µM): 0.872
- relative viability (NCI-H1563; first compound 0.253 µM): 0.978
- relative viability (NCI-H1563; first compound 0.8 µM): 0.9
- relative viability (NCI-H1563; first compound 2.53 µM): 0.934
- relative viability (NCI-H1563; first compound 8 µM): 0.891
- relative viability (NCI-H661; first compound 0.08 µM): 0.481
- relative viability (NCI-H661; first compound 0.253 µM): 0.412
- relative viability (NCI-H661; first compound 0.8 µM): 0.543
- relative viability (NCI-H661; first compound 2.53 µM): 0.464
- relative viability (NCI-H661; first compound 8 µM): 0.579
- relative viability (NCI-H322M; first compound 0.08 µM): 0.64
- relative viability (NCI-H322M; first compound 0.253 µM): 0.768
- relative viability (NCI-H322M; first compound 0.8 µM): 0.529
- relative viability (NCI-H322M; first compound 2.53 µM): 0.564
- relative viability (NCI-H322M; first compound 8 µM): 0.607
- relative viability (NCI-H3122; first compound 0.08 µM): 1.03
- relative viability (NCI-H3122; first compound 0.253 µM): 1.15
- relative viability (NCI-H3122; first compound 0.8 µM): 1
- relative viability (NCI-H3122; first compound 2.53 µM): 0.96
- relative viability (NCI-H3122; first compound 8 µM): 1.02
- relative viability (NCI-H1651; first compound 0.08 µM): 0.866
- relative viability (NCI-H1651; first compound 0.253 µM): 1.06
- relative viability (NCI-H1651; first compound 0.8 µM): 0.711
- relative viability (NCI-H1651; first compound 2.53 µM): 0.703
- relative viability (NCI-H1651; first compound 8 µM): 0.953
- relative viability (PC-14; first compound 0.08 µM): 0.291
- relative viability (PC-14; first compound 0.253 µM): 0.388
- relative viability (PC-14; first compound 0.8 µM): 0.245
- relative viability (PC-14; first compound 2.53 µM): 0.245
- relative viability (PC-14; first compound 8 µM): 0.308
- relative viability (NCI-H727; first compound 0.253 µM): 1.17
- relative viability (NCI-H727; first compound 2.53 µM): 0.802
- relative viability (NCI-H727; first compound 8 µM): 1.16
- relative viability (NCI-H596; first compound 0.08 µM): 1.06
- relative viability (NCI-H596; first compound 0.253 µM): 1.06
- relative viability (NCI-H596; first compound 0.8 µM): 0.95
- relative viability (NCI-H596; first compound 2.53 µM): 0.894
- relative viability (NCI-H596; first compound 8 µM): 1.22
- relative viability (RERF-LC-KJ; first compound 0.08 µM): 0.836
- relative viability (RERF-LC-KJ; first compound 0.253 µM): 0.998
- relative viability (RERF-LC-KJ; first compound 0.8 µM): 0.876
- relative viability (RERF-LC-KJ; first compound 2.53 µM): 0.907
- relative viability (RERF-LC-KJ; first compound 8 µM): 0.98
- relative viability (NCI-H1755; first compound 0.08 µM): 1.09
- relative viability (NCI-H1755; first compound 0.253 µM): 1.06
- relative viability (NCI-H1755; first compound 0.8 µM): 1.15
- relative viability (NCI-H1755; first compound 2.53 µM): 1.03
- relative viability (NCI-H1755; first compound 8 µM): 1.08
- relative viability (NCI-H1355; first compound 0.08 µM): 0.963
- relative viability (NCI-H1355; first compound 0.253 µM): 1.15
- relative viability (NCI-H1355; first compound 0.8 µM): 0.799
- relative viability (NCI-H1355; first compound 2.53 µM): 0.956
- relative viability (NCI-H1355; first compound 8 µM): 1.05
- relative viability (NCI-H1915; first compound 0.08 µM): 1.02
- relative viability (NCI-H1915; first compound 0.253 µM): 1.04
- relative viability (NCI-H1915; first compound 0.8 µM): 1.13
- relative viability (NCI-H1915; first compound 2.53 µM): 0.905
- relative viability (NCI-H1915; first compound 8 µM): 1.06
- relative viability (NCI-H1792; first compound 0.253 µM): 1
- relative viability (NCI-H1792; first compound 0.8 µM): 0.824
- relative viability (NCI-H1792; first compound 2.53 µM): 0.83
- relative viability (NCI-H1792; first compound 8 µM): 1.58
- relative viability (NCI-H520; first compound 0.08 µM): 0.767
- relative viability (NCI-H520; first compound 0.253 µM): 1.13
- relative viability (NCI-H520; first compound 0.8 µM): 0.973
- relative viability (NCI-H520; first compound 2.53 µM): 0.787
- relative viability (NCI-H520; first compound 8 µM): 0.961
- relative viability (LXF-289; first compound 0.08 µM): 0.87
- relative viability (LXF-289; first compound 0.253 µM): 0.935
- relative viability (LXF-289; first compound 0.8 µM): 0.942
- relative viability (LXF-289; first compound 2.53 µM): 0.856
- relative viability (LXF-289; first compound 8 µM): 0.93
- relative viability (NCI-H460; first compound 0.08 µM): 1.13
- relative viability (NCI-H460; first compound 0.253 µM): 1.52
- relative viability (NCI-H460; first compound 0.8 µM): 1.22
- relative viability (NCI-H460; first compound 2.53 µM): 0.843
- relative viability (NCI-H460; first compound 8 µM): 1.19
